This passage reports inhibition results from patent US6713473B1, “Tricyclic compounds” (Meiji Seika Kaisha, Ltd., priority 1999, dated 2004).

This assay concerns the target T1, human Y5 receptor (Homo sapiens, UniProt Q15761).
T1 sequence (Q15761 1-445): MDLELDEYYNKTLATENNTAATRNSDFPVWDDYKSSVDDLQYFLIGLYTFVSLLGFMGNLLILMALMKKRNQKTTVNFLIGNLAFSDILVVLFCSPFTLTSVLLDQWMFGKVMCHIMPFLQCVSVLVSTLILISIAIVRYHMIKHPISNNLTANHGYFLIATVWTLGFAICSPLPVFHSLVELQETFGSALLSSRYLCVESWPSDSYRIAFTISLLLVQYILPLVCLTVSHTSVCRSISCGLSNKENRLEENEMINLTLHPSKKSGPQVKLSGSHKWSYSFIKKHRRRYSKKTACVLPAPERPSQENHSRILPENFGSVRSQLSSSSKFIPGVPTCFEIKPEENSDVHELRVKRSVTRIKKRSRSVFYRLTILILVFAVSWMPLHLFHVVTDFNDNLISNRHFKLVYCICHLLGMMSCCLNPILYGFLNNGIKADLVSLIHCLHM
The assay can be described thus: Y5 receptor binding inhibition test. The conditions noted are these: 2 h, read-out: % Inhibition ratio (10 μM).

For the compound `CCn1c2ccccc2c2cc(NC(=O)CCCCNS(=O)(=O)c3cccc4ccccc34)ccc21` [Compound 1-1], the inhibition at 10 µM was determined as 95%. For the compound `CCn1c2ccccc2c2cc(NC(=O)CCCCCNS(=O)(=O)c3cccc4ccccc34)ccc21` [Compound 1-2], the inhibition at 10 µM was determined as 91%.

Regarding `CCn1c2ccccc2c2cc(NC(=O)CCCCCCCNS(=O)(=O)c3cccc4ccccc34)ccc21` [Compound 1-3], the inhibition at 10 µM came out at 78%. In the case of `CCn1c2ccccc2c2cc(NC(=O)CCNS(=O)(=O)c3cccc4ccccc34)ccc21` [Compound 1-4] it was 100%; in that of `CCn1c2ccccc2c2cc(NC(=O)CCCNS(=O)(=O)c3cccc4ccccc34)ccc21` [Compound 1-5], 98%; in that of `CCn1c2ccccc2c2cc(NC(=O)CCCCNS(=O)(=O)c3ccc4ccccc4c3)ccc21` [Compound 1-6], 93%. Regarding `CCn1c2ccccc2c2cc(NC(=O)CCCCCNS(=O)(=O)c3cccc4cccnc34)ccc21` [Compound 1-7], the inhibition at 10 µM is 100%.

In the case of `CCn1c2ccccc2c2cc(NC(=O)CCCCCNC(=O)c3cccnc3)ccc21` [Compound 1-8], the inhibition at 10 µM came to 100%. `CC(C)n1c2c(c3cc(NC(=O)CCCCCNS(=O)(=O)c4cccc5ccccc45)ccc31)CCCC2` [Compound 1-9]: the inhibition at 10 µM turned out to be 100%. As for `CCn1c2ccccc2c2cc(C(=O)NCCCCCNS(C)(=O)=O)ccc21` [Compound 1-10], the inhibition at 10 µM stood at 99%. As to `CCCS(=O)(=O)NCCCCCNC(=O)c1ccc2c(c1)c1ccccc1n2CC` [Compound 1-11], the inhibition at 10 µM is 103%. Regarding `CCCCCCCCS(=O)(=O)NCCCCCNC(=O)c1ccc2c(c1)c1ccccc1n2CC` [Compound 1-12], the inhibition at 10 µM worked out at 77%. Consider `CCn1c2ccccc2c2cc(C(=O)NCCCCCNS(=O)(=O)C(C)C)ccc21` [Compound 1-13], for which the inhibition at 10 µM stood at 109%. In the case of `CCn1c2ccccc2c2cc(C(=O)NCCCCCNS(=O)(=O)c3ccc4ccccc4c3)ccc21` [Compound 1-14] it was 106%.

On to `CCn1c2ccccc2c2cc(C(=O)NCCCCCNS(=O)(=O)c3ccccc3)ccc21` [Compound 1-15], for which the inhibition at 10 µM stood at 111%.

`CCn1c2ccccc2c2cc(C(=O)NCCCCCNS(=O)(=O)c3cccc4cccnc34)ccc21` [Compound 1-16]: the inhibition at 10 µM came out at 94%. In the case of `CCn1c2ccccc2c2cc(C(=O)NCCCCCNS(=O)(=O)c3cccc4c(N(C)C)cccc34)ccc21` [Compound 1-17] it was 93%; in that of `CCn1c2ccccc2c2cc(C(=O)NCCCCCNC(=O)C(C)C)ccc21` [Compound 1-18], 88%; in that of `CCn1c2ccccc2c2cc(C(=O)NCCCCCNC(=O)C3CCCCC3)ccc21` [Compound 1-19], 84%. In the case of `CCn1c2ccccc2c2cc(C(=O)NCCCCCNC(=O)C34CC5CC(CC(C5)C3)C4)ccc21` [Compound 1-20], the inhibition at 10 µM amounted to 86%. As to `CCn1c2ccccc2c2cc(C(=O)NCCCCCNC(=O)c3ccccc3)ccc21` [Compound 1-21], the inhibition at 10 µM was determined as 97%.

`CCn1c2ccccc2c2cc(C(=O)NCCCCCNC(=O)c3cccc4ccccc34)ccc21` [Compound 1-22]: the inhibition at 10 µM came to 89%.

For `CCn1c2ccccc2c2cc(C(=O)NCCCCCNC(=O)c3cccnc3)ccc21` [Compound 1-23], the inhibition at 10 µM was 77%. Turning to `CCn1c2ccccc2c2cc(C(=O)NCCCCCNS(=O)(=O)N(C)C)ccc21` [Compound 1-24], the inhibition at 10 µM was 98%. In the case of `CCn1c2ccccc2c2cc(C(=O)NCCCCCNC(=O)c3ccc4[nH]ccc4c3)ccc21` [Compound 1-25] it was 100%; in that of `CCn1c2ccccc2c2cc(C(=O)NCCCCCNC(=O)c3ccc4[nH]nnc4c3)ccc21` [Compound 1-26], 82%. On to `CCn1c2ccccc2c2cc(C(=O)NCCSCCNS(=O)(=O)c3cccc4ccccc34)ccc21` [Compound 1-27], for which the inhibition at 10 µM came to 96%. In the case of `CCn1c2ccccc2c2cc(C(=O)NCCOCCNS(=O)(=O)c3cccc4ccccc34)ccc21` [Compound 1-28] it was 100%.

Turning to `CCn1c2ccccc2c2cc(C(=O)NCCNCCNS(=O)(=O)c3cccc4ccccc34)ccc21` [Compound 1-29], the inhibition at 10 µM was determined as 89%.

Turning to `CCn1c2ccccc2c2cc(C(=O)NCCN(C)CCNS(=O)(=O)c3cccc4ccccc34)ccc21` [Compound 1-30], the inhibition at 10 µM was found to be 99%.

On to `CCn1c2ccccc2c2cc(C(=O)NCCCCNS(=O)(=O)c3cccc4ccccc34)ccc21` [Compound 1-31], for which the inhibition at 10 µM was 94%. Regarding `CCn1c2ccccc2c2cc(C(=O)NCCCCCNS(=O)(=O)c3cccc4ccccc34)ccc21` [Compound 1-32], the inhibition at 10 µM turned out to be 97%. In the case of `CCn1c2ccccc2c2cc(C(=O)NCCCCCCNS(=O)(=O)c3cccc4ccccc34)ccc21` [Compound 1-33] it was 82%.

On to `CCn1c2ccccc2c2cc(C(=O)NC(C)CCCCNS(=O)(=O)c3cccc4ccccc34)ccc21` (stereo not shown) [Compound 1-34], for which the inhibition at 10 µM was 88%. For `CCn1c2ccccc2c2cc(C(=O)NC3CCC(CNS(=O)(=O)c4cccc5ccccc45)CC3)ccc21` (stereo not shown) [Compound 1-35] the value was 75%; for `CCn1c2ccccc2c2c(OC)c(C(=O)NCCCCCNS(=O)(=O)c3cccc4ccccc34)ccc21` [Compound 1-36], 92%; for `CCOc1c(C(=O)NCCCCCNS(=O)(=O)c2cccc3ccccc23)ccc2c1c1ccccc1n2CC` [Compound 1-39], 80%.

For `CCOc1c(C(=O)NCCCCCNS(=O)(=O)c2cccc3ccccc23)ccc2c1c1c(n2CC)CCCC1` [Compound 1-40], the inhibition at 10 µM worked out at 91%. Regarding `CCn1c2ccccc2c2c(O)c(C(=O)NCCCCCNS(=O)(=O)c3cccc4ccccc34)ccc21` [Compound 1-41], the inhibition at 10 µM turned out to be 52%. `CCn1c2ccccc2c2cc(C(=O)NCCCCCNS(=O)(=O)c3cccc4ccccc34)c(O)cc21` [Compound 1-42]: the inhibition at 10 µM stood at 74%. As to `CCn1c2c(c3cc(C(=O)NCCCCCNS(=O)(=O)c4cccc5ccccc45)c(O)cc31)CCCC2` [Compound 1-43], the inhibition at 10 µM amounted to 54%.

As for `CCn1c2c(c3c(O)c(C(=O)NCCCCCNS(=O)(=O)c4cccc5ccccc45)ccc31)CCCC2` [Compound 1-44], the inhibition at 10 µM is 69%.

With `CCn1c2c(c3cc(C(=O)NCCCCCNS(=O)(=O)c4cccc5ccccc45)ccc31)CCCC2` [Compound 1-45], the inhibition at 10 µM was determined as 87%. In the case of `Cn1c2ccccc2c2cc(C(=O)NCCCCCNS(=O)(=O)c3cccc4ccccc34)ccc21` [Compound 1-46] it was 102%; in that of `CC(C)n1c2ccccc2c2cc(C(=O)NCCCCCNS(=O)(=O)c3cccc4ccccc34)ccc21` [Compound 1-47], 100%; in that of `CCCCn1c2ccccc2c2cc(C(=O)NCCCCCNS(=O)(=O)c3cccc4ccccc34)ccc21` [Compound 1-48], 96%. In the case of `COCCn1c2ccccc2c2cc(C(=O)NCCCCCNS(=O)(=O)c3cccc4ccccc34)ccc21` [Compound 1-49], the inhibition at 10 µM turned out to be 91%. For `COCCn1c2c(c3cc(C(=O)NCCOCCNS(=O)(=O)C(C)C)ccc31)CCCC2` [Compound 1-50] the value was 89%. Take `CCn1c2c(c3cc(C(=O)NCCOCCNS(C)(=O)=O)ccc31)CCCC2` [Compound 1-51]: the inhibition at 10 µM worked out at 80%. Take `CCn1c2c(c3cc(C(=O)NCCOCCNS(=O)(=O)C(C)C)ccc31)CCCC2` [Compound 1-52]: the inhibition at 10 µM was 88%.

In the case of `COCCn1c2c(c3cc(C(=O)NCCOCCNS(C)(=O)=O)ccc31)CCCC2` [Compound 1-53], the inhibition at 10 µM turned out to be 66%. Consider `CC(=O)n1c2ccccc2c2cc(C(=O)NCCCCCNS(=O)(=O)c3cccc4ccccc34)ccc21` [Compound 1-54], for which the inhibition at 10 µM stood at 88%. In the case of `CCn1c2ccccc2c2cc(C(=O)NCCCCCN3C(=O)c4ccccc4C3=O)ccc21` [Compound 1-56] it was 94%; in that of `CCn1c2ccccc2c2cc(C(=O)NCCCCCNS(=O)(=O)c3cccnc3)ccc21` [Compound 1-57], 89%; in that of `COCCn1c2c(c3cc(C(=O)NCCOCCNS(=O)(=O)c4cccnc4)ccc31)CCCC2` [Compound 1-58], 66%. Consider `CC(C)S(=O)(=O)NCCCCCNC(=O)c1ccc2c(c1)c1c(n2CCO)CCCC1` [Compound 1-59], for which the inhibition at 10 µM was determined as 93%. In the case of `CC(C)S(=O)(=O)NCCCCCNC(=O)c1ccc2c(c1)c1c(n2CCOCCO)CCCC1` [Compound 1-60] it was 86%. In the case of `CC(C)S(=O)(=O)NCCCCCNC(=O)c1ccc2c(c1)c1c(n2CC(N)=O)CCCC1` [Compound 1-61] it was 77%; in that of `CCn1c2c(c3cc(C(=O)NCCOCCSc4ncn[nH]4)ccc31)CCCC2` [Compound 2-1], 71%. For `CCn1c2c(c3cc(C(=O)NCCOCCn4nnnc4N)ccc31)CCCC2` [Compound 2-4] the value was 85%; for `CCn1c2c(c3cc(NC(C)=O)ccc31)CCCC2` [Compound 3-1], 88%; for `CCn1c2c(c3cc(NC(C)=O)ccc31)CCCCC2` [Compound 3-2], 94%.

For `CCn1c2c(c3cc(NC(C)=O)ccc31)CCC2` [Compound 3-3], the inhibition at 10 µM is 89%. As for `CCn1c2ccccc2c2cc(NC(=O)C3CC3)ccc21` [Compound 3-5], the inhibition at 10 µM came out at 100%.
